Experimental data: patent publication US9399626B2, “2-thiopyrimidinones” (Pfizer Inc., priority 2011, dated 2016)
Where a name gives a salt, the structure may show the parent alone.

Biological target: T1, MPO (purified from human polynuclear leukocytes) (Homo sapiens, UniProt P05164)
T1 construct: purified from human polynuclear leukocytes; purchased Calbiochem/EMD Biosciences; host or cells: human polynuclear leukocytes (natural source)
Assay: MPO Amplex Red Activity Assay
Type: biochemical
Conditions: Table 1, 2 μM H2O2, pH 7.4
Method: MPO Amplex Red Activity Assay.
MPO peroxidase activity was measured by monitoring the formation of resorufin generated from the oxidation of Amplex Red (10-Acetyl-3,7-dihydroxyphenoxazine) (Invitrogen, Carlsbad, Calif.) by MPO (Gomes, Fernandes et al. 2005). Assay mixtures (100 μL total volume) contained 50 mM NaPi pH 7.4, 150 mM NaCl, 1 mM DTPA (diethylenetriaminepentaacetic acid), 2% DMSO, 2 μM H2O2, 30 μM Amplex Red and the reaction was initiated by the addition of […] (purified from human polynuclear leukocytes and purchased from Calbiochem/EMD Biosciences, Gibbstown, N.J.). All assays were performed in 96-well, half-area, black, nonbinding surface, polystyrene plates (Corning) and the production of resorufin (excitation 530 nm, emission 580 nm) was monitored every 20 sec on a Spectramax M2 Microplate Spectrophotometer (Molecular Devices, Palo Alto, Calif.) equipped with Softmax Pro software (Molecular Devices, Palo Alto, Calif.). Reactions to determine the background reaction rate consisted of all assay components and 4 μL of 500 unit/mL bovine catalase (Sigma) in 50 mM KPi pH 7.0. The background rate was subtracted from each reaction progress curve. All data was analyzed using non-linear regression analysis in Microsoft Excel and Kaleidagraph (Synergy Software).
To determine inhibitor potency (kinact/KI) against MPO, the first 600 sec of the reaction progress curves were fit to equation 1, where Vo is the initial rate in RFU/sec and t is time in seconds, to obtain the first order rate constant for enzyme inactivation (kobs) at each inhibitor concentration.
[formula] Equation 1 is a variation of the standard equation for slow binding inhibition where the steady state velocity (Vs) is set to zero. Each kobs value was corrected for auto-inactivation of the enzyme by subtracting the kobs value for the uninhibited reaction. The corrected kobs values were then plotted versus inhibitor concentration ([I]) and fit to equation 2
[formula] where kinact is the maximal rate of inactivation and KI is the inhibitor concentration that yields half the rate of maximal inactivation (Copeland 2005).
Table 1 and (1A) below provides the myeloperoxidase inhibitory activity for the Examples below in accordance with the above-described assay.

T1 sequence (P05164 279-745 limits assumed): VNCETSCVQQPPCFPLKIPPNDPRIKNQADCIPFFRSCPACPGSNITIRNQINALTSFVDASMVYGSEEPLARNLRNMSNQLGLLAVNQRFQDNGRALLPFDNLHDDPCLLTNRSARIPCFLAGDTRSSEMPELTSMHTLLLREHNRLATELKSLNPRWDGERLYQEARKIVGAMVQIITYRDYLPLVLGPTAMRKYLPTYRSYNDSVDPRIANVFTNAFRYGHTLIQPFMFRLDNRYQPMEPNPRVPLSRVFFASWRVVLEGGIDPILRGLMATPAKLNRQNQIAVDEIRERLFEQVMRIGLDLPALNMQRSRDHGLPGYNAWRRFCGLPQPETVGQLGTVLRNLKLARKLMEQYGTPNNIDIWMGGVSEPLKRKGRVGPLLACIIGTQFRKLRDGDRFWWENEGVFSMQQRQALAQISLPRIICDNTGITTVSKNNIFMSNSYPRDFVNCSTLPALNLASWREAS
T1 sequence (P05164 165-273 limits assumed): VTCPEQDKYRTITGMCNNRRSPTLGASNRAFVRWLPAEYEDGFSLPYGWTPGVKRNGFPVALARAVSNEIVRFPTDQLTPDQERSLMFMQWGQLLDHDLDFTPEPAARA

SMILES | MPO kinact/Ki
NCCCn1c(-c2cccc3[nH]ccc23)cc(=O)[nH]c1=S [Example 30, 1-(3-aminopropyl)-6-(1H-indol-4-yl)-2-thioxo-2,3-dihydropyrimidin-4(1H)-one trifluoroacetate] | 5870 1/s per M
NC(=O)Cn1c(-c2cccc3ccoc23)cc(=O)[nH]c1=S [Example 31, 2-[6-(1-benzofuran-7-yl)-4-oxo-2-thioxo-3,4-dihydropyrimidin-1(2H)-yl]acetamide] | 7680 1/s per M
NCCCn1c(-c2n[nH]c3ccccc23)cc(=O)[nH]c1=S [Example 32, 1-(3-aminopropyl)-6-(1H-indazol-3-yl)-2-thioxo-2,3-dihydropyrimidin-4(1H)-one formate] | 2120 1/s per M
COCCn1c(-c2c[nH]c3ccccc23)cc(=O)[nH]c1=S [Example 33, 6-(1H-indol-3-yl)-1-(2-methoxyethyl)-2-thioxo-2,3-dihydropyrimidin-4(1H)-one] | 4520 1/s per M
NCCCn1c(-c2cccc3ccoc23)cc(=O)[nH]c1=S [Example 34, 1-(3-aminopropyl)-6-(1-benzofuran-7-yl)-2-thioxo-2,3-dihydropyrimidin-4(1H)-one hydrochloride] | 13100 1/s per M
COCCn1c(-c2c[nH]c3ncccc23)cc(=O)[nH]c1=S [Example 35, 1-(2-methoxyethyl)-6-(1H-pyrrolo[2,3-b]pyridin-3-yl)-2-thioxo-2,3-dihydropyrimidin-4(1H)-one] | 4110 1/s per M
NCCn1c(-c2csc3ccccc23)cc(=O)[nH]c1=S [Example 36, 1-(2-aminoethyl)-6-(1-benzothien-3-yl)-2-thioxo-2,3-dihydropyrimidin-4(1H)-one hydrochloride] | 5980 1/s per M
NC(=O)Cn1c(-c2ccc3c(c2)CCO3)cc(=O)[nH]c1=S [Example 37, 2-[6-(2,3-dihydro-1-benzofuran-5-yl)-4-oxo-2-thioxo-3,4-dihydropyrimidin-1(2H)-yl]acetamide] | 6460 1/s per M
NCCCn1c(-c2ccc3c(c2)CCO3)cc(=O)[nH]c1=S [Example 38, 1-(3-aminopropyl)-6-(2,3-dihydro-1-benzofuran-5-yl)-2-thioxo-2,3-dihydropyrimidin-4(1H)-one hydrochloride] | 5240 1/s per M
O=c1cc(-c2csc3ccccc23)n(CCO)c(=S)[nH]1 [Example 39, 6-(1-benzothien-3-yl)-1-(2-hydroxyethyl)-2-thioxo-2,3-dihydropyrimidin-4(1H)-one] | 4520 1/s per M
O=c1cc(-c2cc3ccccc3s2)n(CCO)c(=S)[nH]1 [Example 40, 6-(1-benzothien-2-yl)-1-(2-hydroxyethyl)-2-thioxo-2,3-dihydropyrimidin-4(1H)-one] | 6430 1/s per M
COCCn1c(-c2cccc3c2OCC3)cc(=O)[nH]c1=S [Example 41, 6-(2,3-dihydro-1-benzofuran-7-yl)-1-(2-methoxyethyl)-2-thioxo-2,3-dihydropyrimidin-4(1H)-one] | 5000 1/s per M
O=c1cc(-c2cccc3ncsc23)n(CCO)c(=S)[nH]1 [Example 42, 6-(1,3-benzothiazol-7-yl)-1-(2-hydroxyethyl)-2-thioxo-2,3-dihydropyrimidin-4(1H)-one] | 6070 1/s per M
COc1ccc(C)cc1-c1cc(=O)[nH]c(=S)n1CCCN [Example 43, 1-(3-aminopropyl)-6-(2-methoxy-5-methylphenyl)-2-thioxo-2,3-dihydropyrimidin-4(1H)-one hydrochloride] | 34600 1/s per M
COc1ncc(C)cc1-c1cc(=O)[nH]c(=S)n1CC(N)=O [Example 44, 2-[6-(2-methoxy-5-methylpyridin-3-yl)-4-oxo-2-thioxo-3,4-dihydropyrimidin-1(2H)-yl]acetamide] | 3440 1/s per M

The remaining lines, values ahead:

MPO kinact/Ki | SMILES
4000 1/s per M | COc1ncc(C)cc1-c1cc(=O)[nH]c(=S)n1CCCN [Example 45, 1-(3-aminopropyl)-6-(2-methoxy-5-methylpyridin-3-yl)-2-thioxo-2,3-dihydropyrimidin-4(1H)-one trifluoroacetate]
1110 1/s per M | COCCn1c(-c2ccccc2CCO)cc(=O)[nH]c1=S [Example 46, 6-[2-(2-hydroxyethyl)phenyl]-1-(2-methoxyethyl)-2-thioxo-2,3-dihydropyrimidin-4(1H)-one]
2340 1/s per M | O=c1cc(-c2cccc3c2OCCO3)n(CCO)c(=S)[nH]1 [Example 47, 6-(2,3-dihydro-1,4-benzodioxin-5-yl)-1-(2-hydroxyethyl)-2-thioxo-2,3-dihydropyrimidin-4(1H)-one]
6570 1/s per M | COc1cc(OC)cc(-c2cc(=O)[nH]c(=S)n2CCN)c1 [Example 48, 1-(2-aminoethyl)-6-(3,5-dimethoxyphenyl)-2-thioxo-2,3-dihydropyrimidin-4(1H)-one hydrochloride]
2230 1/s per M | COCCn1c(-c2nc(C)ccc2OC)cc(=O)[nH]c1=S [Example 49, 1-(2-methoxyethyl)-6-(3-methoxy-6-methylpyridin-2-yl)-2-thioxo-2,3-dihydropyrimidin-4(1H)-one]
2610 1/s per M | COCCn1c(-c2ccc(C)nc2OC)cc(=O)[nH]c1=S [Example 50, 1-(2-methoxyethyl)-6-(2-methoxy-6-methylpyridin-3-yl)-2-thioxo-2,3-dihydropyrimidin-4(1H)-one]
6180 1/s per M | COCCn1c(-c2cc(C)cnc2OC)cc(=O)[nH]c1=S [Example 51, 1-(2-methoxyethyl)-6-(2-methoxy-5-methylpyridin-3-yl)-2-thioxo-2,3-dihydropyrimidin-4(1H)-one]
33.4 1/s per M | NCCOc1ccccc1-c1cc(=O)[nH]c(=S)n1CCO [Example 52, 6-[2-(2-aminoethoxy)phenyl]-1-(2-hydroxyethyl)-2-thioxo-2,3-dihydropyrimidin-4(1H)-one formate]
3290 1/s per M | NCCn1c(-c2ccccc2OCCO)cc(=O)[nH]c1=S [Example 53, 1-(2-aminoethyl)-6-[2-(2-hydroxyethoxy)phenyl]-2-thioxo-2,3-dihydropyrimidin-4(1H)-one hydrochloride]
7070 1/s per M | COc1cc(OC)cc(-c2cc(=O)[nH]c(=S)n2CCO)c1 [Example 54, 6-(3,5-dimethoxyphenyl)-1-(2-hydroxyethyl)-2-thioxo-2,3-dihydropyrimidin-4(1H)-one]
7740 1/s per M | COCCn1c(-c2ccccc2SC)cc(=O)[nH]c1=S [Example 55, 1-(2-methoxyethyl)-6-[2-(methylthio)phenyl]-2-thioxo-2,3-dihydropyrimidin-4(1H)-one]
4770 1/s per M | COc1cc(F)ccc1-c1cc(=O)[nH]c(=S)n1CC(N)=O [Example 56, 2-[6-(4-fluoro-2-methoxyphenyl)-4-oxo-2-thioxo-3,4-dihydropyrimidin-1(2H)-yl]acetamide]
13100 1/s per M | COc1cc(F)ccc1-c1cc(=O)[nH]c(=S)n1CCCN [Example 57, 1-(3-aminopropyl)-6-(4-fluoro-2-methoxyphenyl)-2-thioxo-2,3-dihydropyrimidin-4(1H)-one hydrochloride]
11700 1/s per M | COc1ccc(F)cc1-c1cc(=O)[nH]c(=S)n1CCCN [Example 58, 1-(3-aminopropyl)-6-(5-fluoro-2-methoxyphenyl)-2-thioxo-2,3-dihydropyrimidin-4(1H)-one hydrochloride]
8480 1/s per M | COc1ccc(F)cc1-c1cc(=O)[nH]c(=S)n1CC(N)=O [Example 59, 2-[6-(5-fluoro-2-methoxyphenyl)-4-oxo-2-thioxo-3,4-dihydropyrimidin-1(2H)-yl]acetamide]
3470 1/s per M | COCCn1c(-c2c(F)cccc2OC)cc(=O)[nH]c1=S [Example 60, 6-(2-fluoro-6-methoxyphenyl)-1-(2-methoxyethyl)-2-thioxo-2,3-dihydropyrimidin-4(1H)-one]
3530 1/s per M | COc1ccc(-c2cc(=O)[nH]c(=S)n2CCN)c(Cl)c1 [Example 61, 1-(2-aminoethyl)-6-(2-chloro-4-methoxyphenyl)-2-thioxo-2,3-dihydropyrimidin-4(1H)-one hydrochloride]
6930 1/s per M | COc1cc(Cl)ccc1-c1cc(=O)[nH]c(=S)n1CCN [Example 62, 1-(2-aminoethyl)-6-(4-chloro-2-methoxyphenyl)-2-thioxo-2,3-dihydropyrimidin-4(1H)-one hydrochloride]
12200 1/s per M | COc1ccc(Cl)cc1-c1cc(=O)[nH]c(=S)n1CCN [Example 63, 1-(2-aminoethyl)-6-(5-chloro-2-methoxyphenyl)-2-thioxo-2,3-dihydropyrimidin-4(1H)-one hydrochloride]
